The CheMixHub viscosity set

Test: xn = mol fraction of the nth substance listed

CCCCCCN + c1ccccc1
303.15 K, 101 kPa
Details | viscosity [mPa·s]
x2 = 0.105 | 0.6977
x2 = 0.2983 | 0.645
x2 = 0.4918 | 0.6006
x2 = 0.5946 | 0.5814
x2 = 0.6955 | 0.5639
x2 = 0.7954 | 0.5506
x2 = 0.8997 | 0.549

COCCOCCOC + CC1COC(=O)O1
viscosity [mPa·s], 101.33 kPa
Details | 298.15 K | 308.15 K | 318.15 K
x1 = 0.021 | 2.427 | 2 | 1.666
x1 = 0.0421 | 2.372 | 1.94 | 1.641
x1 = 0.0759 | 2.295 | 1.87 | 1.565
x1 = 0.0976 | 2.245 | 1.835 | 1.529
x1 = 0.1779 | 2.081 | 1.693 | 1.42
x1 = 0.2468 | 1.953 | 1.595 | 1.332
x1 = 0.3441 | 1.782 | 1.458 | 1.216
x1 = 0.3815 | 1.719 | 1.412 | 1.176
x1 = 0.4148 | 1.669 | 1.362 | 1.145
x1 = 0.4853 | 1.573 | 1.291 | 1.083
x1 = 0.5455 | 1.488 | 1.226 | 1.038
x1 = 0.6708 | 1.324 | 1.101 | 0.938
x1 = 0.7643 | 1.223 | 1.017 | 0.877
x1 = 0.8341 | 1.148 | 0.959 | 0.829
x1 = 0.8725 | 1.107 | 0.928 | 0.804
x1 = 0.9275 | 1.06 | 0.889 | 0.774
x1 = 0.9513 | 1.035 | 0.874 | 0.758
x1 = 0.9796 | 1.005 | 0.852 | 0.739

COC[N+]1(C)CCCC1.O=S(=O)([N-]S(=O)(=O)C(F)(F)F)C(F)(F)F + O
101 kPa, x2 = 0.1527
Details | viscosity [mPa·s]
293.15 K | 35.2
298.15 K | 29.4
303.15 K | 24.8
313.15 K | 18.1
323.15 K | 13.8

CC=CC(=O)O + Cc1ccccc1
viscosity [mPa·s], 101 kPa
Details | 298.15 K | 303.15 K | 313.15 K | 323.15 K
x1 = 0.0503 | 0.5712 | 0.5371 | 0.4796 | 0.4317
x1 = 0.0975 | 0.5997 | 0.5609 | 0.4998 | 0.4502
x1 = 0.148 | 0.6218 | 0.5858 | 0.5213 | 0.4671

COCCOCCOC + ClC(Cl)(Cl)Cl
298.15 K, 101.33 kPa
Details | viscosity [mPa·s]
x1 = 0.0934 | 0.965
x1 = 0.1967 | 0.995
x1 = 0.3018 | 1.023
x1 = 0.4053 | 1.044
x1 = 0.4892 | 1.059
x1 = 0.5352 | 1.06
x1 = 0.592 | 1.057
x1 = 0.6503 | 1.052
x1 = 0.6902 | 1.043
x1 = 0.7963 | 1.031
x1 = 0.8656 | 1.019
x1 = 0.9021 | 1.011
x1 = 0.9343 | 1.001
